Values quoted from earlier work as cited in article PMC4838521 (ChemMedChem, 2015).

Biological target: YopH-NT (Yersinia pestis, UniProt O68720)
Conditions: read-out: Kd for YopH-NT

Chain of YopH-NT (O68720 1-129 limits assumed): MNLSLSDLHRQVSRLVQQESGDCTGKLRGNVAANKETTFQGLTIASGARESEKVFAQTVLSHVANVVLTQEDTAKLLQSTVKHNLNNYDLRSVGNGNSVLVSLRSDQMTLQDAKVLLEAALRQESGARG

Substance: cyclo-DE(pY)DDPfK
- Kd: ~15 µM

Substance: cyclo-DE(pY)LDPfK
- Kd: ~23 µM
